Data on 16 compounds can be found in PubChem BioAssay (NCI).

“And” between values parts separate entries of the source, which are not always exact repeats. Equal entries are not always repeated.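 How tested: cells in 96-well plates exposed to compound for 48 hours at five concentrations. GI50: concentration for 50% inhibition of growth. TGI denotes the concentration required for complete inhibition of growth.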

Among the test systems are CCRF-CEM leukemia; COLO 205 colon; DU-145 prostate; HOP-62 NSCLC; MDA-MB-231 breast; NCI-H226 lung; NCI/ADR-RES ovarian; OVCAR-3 ovarian; SK-MEL-28 melanoma; T-47D breast.
Common to all, as to assay: NCI tumour cell line growth inhibition, 48 h

`COc1cccc(N2C(=O)C3c4[nH]c5ccccc5c4C4CCCC4C3C2=O)c1` (centres undefined): the TGI with CCRF-CEM leukemia was above 10 µM; in the assay with COLO 205 colon, above 10 µM; with DU-145 prostate it was above 10 µM; in the assay on HOP-62 NSCLC it was 6.25 µM; in the assay on MDA-MB-231 breast it was 5.63 µM; in the assay on NCI-H226 lung it was 7.59 µM. Further, the TGI in the assay with NCI/ADR-RES ovarian, with OVCAR-3 ovarian, with SK-MEL-28 melanoma and in the assay with T-47D breast was above 10 µM each time.
For `O=C1NNC2(C(=O)N1)c1ccccc1-c1ccccc12`, the TGI with CCRF-CEM leukemia, with COLO 205 colon, with DU-145 prostate, with HOP-62 NSCLC, in the assay on MDA-MB-231 breast and in the assay on NCI-H226 lung was above 10 µM throughout. Moreover, the TGI with NCI/ADR-RES ovarian, in the assay with SK-MEL-28 melanoma and in the assay on T-47D breast was above 10 µM throughout.
`COc1cc2nc(N3CCCC3)nc(NCc3ccccc3)c2cc1OC`: the GI50 in the assay with CCRF-CEM leukemia was 2.55 µM; in the assay on COLO 205 colon, 1.45 µM; in the assay on DU-145 prostate, 4.62 µM; with HOP-62 NSCLC it was 12.3 µM; with MDA-MB-231 breast, 2.1 µM; in the assay on NCI-H226 lung, 17.3 µM. Moreover, the GI50 was 3.71 µM in the assay with NCI/ADR-RES ovarian, 2.27 µM in the assay with OVCAR-3 ovarian, 1.75 µM in the assay with SK-MEL-28 melanoma and 1.87 µM in the assay on T-47D breast. For the same compound, the TGI is 8.07 µM in the assay with CCRF-CEM leukemia; 3.14 µM in the assay with COLO 205 colon; 16.5 µM in the assay with DU-145 prostate; 26.9 µM in the assay on HOP-62 NSCLC; 4.48 µM with MDA-MB-231 breast; 40.4 µM with NCI-H226 lung. Besides, the TGI was 18.7 µM in the assay on NCI/ADR-RES ovarian, 5.53 µM in the assay on OVCAR-3 ovarian, 3.19 µM in the assay on SK-MEL-28 melanoma and 4.29 µM in the assay with T-47D breast.
On to `C=C(C(N)=O)c1ccc([N+](=O)[O-])o1`, for which the TGI is 18.9 µM with CCRF-CEM leukemia; 12.9 µM in the assay with COLO 205 colon; 23.4 µM in the assay on DU-145 prostate; 46.8 µM in the assay with HOP-62 NSCLC; 29.8 µM in the assay on MDA-MB-231 breast; 49.6 µM in the assay on NCI-H226 lung. For the same compound, the TGI in the assay with NCI/ADR-RES ovarian is above 100 µM; with OVCAR-3 ovarian, 22.4 µM; with SK-MEL-28 melanoma it was 12.7 µM; in the assay with T-47D breast, 48 µM.
Regarding `Cc1ccccc1OCC(O)CN1CCN(c2ccc(Cl)cc2)CC1` (centres undefined), the GI50 in the assay on CCRF-CEM leukemia was 16.4 µM; in the assay with COLO 205 colon, 15.7 µM; with DU-145 prostate, 17.9 µM; in the assay with HOP-62 NSCLC, 15.9 µM; in the assay on MDA-MB-231 breast, 14.4 µM; with NCI-H226 lung, 18.6 µM. The GI50 with NCI/ADR-RES ovarian is 14.8 µM; in the assay with OVCAR-3 ovarian, 16.6 µM; with SK-MEL-28 melanoma, 18.7 µM; with T-47D breast, 18.5 µM. Besides, the TGI with CCRF-CEM leukemia came to 44.1 µM; in the assay with COLO 205 colon, 30.3 µM; in the assay on DU-145 prostate, 32.7 µM; in the assay on HOP-62 NSCLC, 32.3 µM; with MDA-MB-231 breast it was 29.8 µM; with NCI-H226 lung it was 35.9 µM. For the same compound, the TGI in the assay on NCI/ADR-RES ovarian was determined as 29.5 µM; in the assay with OVCAR-3 ovarian it was 31.7 µM; in the assay with SK-MEL-28 melanoma, 33.5 µM; in the assay on T-47D breast it was 47.3 µM.
`COc1ccc(CCN2CC=Cn3c2nc2ccccc2c3=O)cc1`: the GI50 is 0.03 µM with CCRF-CEM leukemia; 0.0267 µM in the assay with COLO 205 colon; 0.0374 µM in the assay on DU-145 prostate; 0.0346 µM with HOP-62 NSCLC; 0.0558 µM in the assay on MDA-MB-231 breast; 0.101 µM in the assay on NCI-H226 lung. Besides, the GI50 in the assay with NCI/ADR-RES ovarian was 0.0179 µM; in the assay with OVCAR-3 ovarian, 0.0214 µM; in the assay with SK-MEL-28 melanoma it was 0.694 µM; with T-47D breast, 16 µM. Further, the TGI was above 100 µM with CCRF-CEM leukemia; 0.0847 µM in the assay on COLO 205 colon; above 23.3 µM in the assay with DU-145 prostate; above 64 µM in the assay with HOP-62 NSCLC; above 100 µM with MDA-MB-231 breast; above 85.8 µM with NCI-H226 lung. For the same compound, the TGI is 0.77 µM in the assay with NCI/ADR-RES ovarian, 0.0605 µM in the assay with OVCAR-3 ovarian, above 100 µM in the assay with SK-MEL-28 melanoma and above 100 µM in the assay on T-47D breast.
Consider `C/C(=N/NC(=S)N1CCCCC1)c1ccccc1O`, for which the TGI in the assay with CCRF-CEM leukemia is above 31.6 µM; in the assay on COLO 205 colon, above 31.6 µM; in the assay with DU-145 prostate, above 31.6 µM; in the assay with HOP-62 NSCLC, above 100 µM; with MDA-MB-231 breast it was above 100 µM; with NCI-H226 lung it was above 31.6 µM. The TGI with NCI/ADR-RES ovarian, in the assay on OVCAR-3 ovarian, with SK-MEL-28 melanoma and in the assay on T-47D breast was above 31.6 µM each time.
In the case of `Cc1cc(NCCCN(C)C)c2ccc3c(ccc4c(NCCCN(C)C)cc(C)nc43)c2n1`, the GI50 was 0.158 µM in the assay on CCRF-CEM leukemia; 0.183 µM with COLO 205 colon; 0.159 µM in the assay with DU-145 prostate; 0.196 µM in the assay on HOP-62 NSCLC; 0.175 µM with MDA-MB-231 breast; 0.215 µM with NCI-H226 lung. The GI50 in the assay with NCI/ADR-RES ovarian is 0.583 µM; in the assay with OVCAR-3 ovarian it was 0.191 µM; in the assay on SK-MEL-28 melanoma it was 0.187 µM; in the assay on T-47D breast it was 0.521 µM. The TGI in the assay on CCRF-CEM leukemia was 0.478 µM; with COLO 205 colon, 0.408 µM; in the assay on DU-145 prostate, 0.436 µM; in the assay on HOP-62 NSCLC it was 0.489 µM; in the assay with MDA-MB-231 breast it was 0.468 µM; in the assay with NCI-H226 lung, 0.88 µM. Also, the TGI is 3.38 µM with NCI/ADR-RES ovarian, 0.444 µM with OVCAR-3 ovarian, 0.413 µM in the assay on SK-MEL-28 melanoma and 2.54 µM in the assay with T-47D breast.
`CC1(C)CC(O)C(C)(C)[C@@H](O)C1` (some centres undefined): the TGI in the assay on CCRF-CEM leukemia, in the assay with COLO 205 colon, with DU-145 prostate, in the assay with HOP-62 NSCLC, in the assay with MDA-MB-231 breast and in the assay on NCI-H226 lung was above 100 µM in each case. The TGI in the assay with NCI/ADR-RES ovarian, in the assay on SK-MEL-28 melanoma and in the assay with T-47D breast was above 100 µM each time.
On to `CC1CCC/C1=C(/I)C(=O)c1ccccc1` (centres undefined), for which the TGI in the assay on CCRF-CEM leukemia was 75.5 µM; in the assay with COLO 205 colon it was above 100 µM; in the assay on DU-145 prostate, above 100 µM; with HOP-62 NSCLC, above 100 µM; in the assay on MDA-MB-231 breast it was above 100 µM; in the assay on NCI-H226 lung it was above 100 µM. In addition, the TGI in the assay with NCI/ADR-RES ovarian, with SK-MEL-28 melanoma and with T-47D breast was above 100 µM each time.
Consider `C=C1C(O)C2C(=C(CC)C13CC3)C(=O)C(C)(C)C2OC` (centres undefined), for which the GI50 with CCRF-CEM leukemia is 27.5 µM; in the assay with COLO 205 colon, above 100 µM; with DU-145 prostate, 57.9 µM; in the assay with HOP-62 NSCLC, 90.8 µM; in the assay with MDA-MB-231 breast, 87.5 µM; in the assay on NCI/ADR-RES ovarian, 92.7 µM. Also, the GI50 in the assay on OVCAR-3 ovarian is 40.3 µM; with SK-MEL-28 melanoma, above 100 µM; in the assay on T-47D breast, above 100 µM. The TGI in the assay on CCRF-CEM leukemia, in the assay on COLO 205 colon, in the assay on DU-145 prostate, in the assay on HOP-62 NSCLC, in the assay on MDA-MB-231 breast and with NCI/ADR-RES ovarian was above 100 µM each time. Also, the TGI in the assay on OVCAR-3 ovarian, in the assay on SK-MEL-28 melanoma and with T-47D breast was above 100 µM each time.
Turning to `N#C/C(=C\c1ccsc1)c1nc2ccccc2o1`, the TGI in the assay with CCRF-CEM leukemia is 26.3 µM; in the assay with COLO 205 colon, above 100 µM; with DU-145 prostate, above 100 µM; in the assay on MDA-MB-231 breast it was above 100 µM; in the assay with NCI-H226 lung, above 100 µM; in the assay with NCI/ADR-RES ovarian it was above 100 µM. Also, the TGI in the assay with OVCAR-3 ovarian, in the assay with SK-MEL-28 melanoma and with T-47D breast was above 100 µM each time. The GI50 in the assay on COLO 205 colon was 39 µM; in the assay with DU-145 prostate it was 84.6 µM; in the assay on MDA-MB-231 breast, 22.4 µM; in the assay with NCI-H226 lung, above 100 µM; in the assay with NCI/ADR-RES ovarian it was above 100 µM; in the assay on OVCAR-3 ovarian, 85.1 µM. The GI50 in the assay on SK-MEL-28 melanoma was above 100 µM; with T-47D breast it was 44.7 µM.
As for `COc1cc2c(cc1OC)[C@H](C)N1CCc3cc(OC)c(OC)cc3[C@@H]1C2`, the TGI in the assay with CCRF-CEM leukemia, with COLO 205 colon, with DU-145 prostate, with MDA-MB-231 breast, in the assay on NCI-H226 lung and in the assay with NCI/ADR-RES ovarian was above 100 µM each time. The TGI with OVCAR-3 ovarian, in the assay with SK-MEL-28 melanoma and in the assay on T-47D breast was above 100 µM throughout.
Take `Nc1ncnc2c1N=C(c1ccc3c(c1)OCO3)CC(c1ccc([N+](=O)[O-])cc1)N2` (centres undefined): the GI50 was 92 µM in the assay with COLO 205 colon; 46.3 µM in the assay on DU-145 prostate; 67.6 µM with HOP-62 NSCLC; 38.9 µM in the assay on MDA-MB-231 breast; above 100 µM with NCI-H226 lung; 55.4 µM in the assay with NCI/ADR-RES ovarian. Further, the values for the GI50 in the assay on OVCAR-3 ovarian, in the assay on SK-MEL-28 melanoma and in the assay on T-47D breast were 88.3 µM, above 100 µM and 80.7 µM, respectively. Besides, the TGI with COLO 205 colon, with DU-145 prostate, in the assay with HOP-62 NSCLC, with MDA-MB-231 breast, in the assay with NCI-H226 lung and in the assay with NCI/ADR-RES ovarian was above 100 µM in each case. Besides, the TGI in the assay on OVCAR-3 ovarian, with SK-MEL-28 melanoma and with T-47D breast was above 100 µM each time.
As for `CC[C@@]1(O)C(=O)OCc2c1cc1n(c2=O)Cc2cc3cc4c(cc3nc2-1)OCO4`, the TGI is 0.0152 µM and < 0.0414 µM in the assay with CCRF-CEM leukemia; 0.71 µM in the assay with COLO 205 colon; 0.00572 µM in the assay on DU-145 prostate; above 100 µM in the assay with MDA-MB-231 breast; 0.00616 µM and < 0.0387 µM in the assay with NCI-H226 lung; above 100 µM with NCI/ADR-RES ovarian. The results for the TGI in the assay on OVCAR-3 ovarian and in the assay on T-47D breast were 0.0793 µM and 0.427 µM, respectively. The GI50 in the assay on COLO 205 colon was below 0.0341 µM; in the assay on OVCAR-3 ovarian, 0.0135 µM; with SK-MEL-28 melanoma, 0.0971 µM.
Turning to `COc1cc(OC)c(C/C=C/c2ccccc2)cc1O`, the TGI was found to be 51.6 µM with CCRF-CEM leukemia; 50.7 µM in the assay on COLO 205 colon; 31.5 µM with DU-145 prostate; 31.7 µM with MDA-MB-231 breast; 33.8 µM in the assay on NCI-H226 lung; 31.4 µM in the assay on NCI/ADR-RES ovarian. Further, the TGI in the assay with OVCAR-3 ovarian worked out at 31.1 µM; with SK-MEL-28 melanoma, 30.4 µM; in the assay with T-47D breast, 23.7 µM.
